Laboratory results reported in patent US20110014273A1, “Method of Treating BCC” (priority 2009, published 2011).
≈ marks a conversion by molar mass, not a printed value.

Experiments:
P. aeruginosa MMX 1609 [1] = test: Susceptibility testing (MIC at 35° C.); type: cell-based; settings: Pseudomonas aeruginosa, MMX1609
Description: (§1) From a previous susceptibility testing experiment, the liposomal test batches and control tobramycin MIC values are shown in Table 5 below. The time-kill test is conducted using the test agents shown in bold print in Table 5: [table]

B. cepacia ATCC 25608 [2] = test: Susceptibility testing (MIC at 35° C.); type: cell-based; settings: Burkholderia cepacia, ATCC25608
Description: as §1

P. aeruginosa ATCC 27853 [3] = test: Susceptibility testing (MIC at 35° C.); type: cell-based; settings: Pseudomonas aeruginosa, ATCC27853
Description: as §1

P. aeruginosa ATCC 27853 [4] = settings: at 35° C.; cited from earlier work
P. aeruginosa MMX 1609 [5] = settings: at 35° C.; cited from earlier work
B. cepacia ATCC 25608 [6] = settings: at 35° C.; cited from earlier work

MIC (P. aeruginosa MMX 1609 [1]) | MIC (B. cepacia ATCC 25608 [2]) | MIC (P. aeruginosa ATCC 27853 [3]) | Compound | MIC, CLSI QC range (P. aeruginosa ATCC 27853 [4]) | MIC, CLSI QC range (P. aeruginosa MMX 1609 [5]) | MIC, CLSI QC range (B. cepacia ATCC 25608 [6])
0.5 µg/mL (≈ 1.07 µM) | > 64 µg/mL | 0.5 µg/mL (≈ 1.07 µM) | NC[C@H]1O[C@H](O[C@H]2[C@H](O)[C@@H](O[C@H]3O[C@H](CO)[C@@H](O)[C@H](N)[C@H]3O)[C@H](N)C[C@@H]2N)[C@H](N)C[C@@H]1O [Free tobramycin (Sigma), tobramycin] | – | – | –
– | – | – | NC[C@H]1O[C@H](O[C@H]2[C@H](O)[C@@H](O[C@H]3O[C@H](CO)[C@@H](O)[C@H](N)[C@H]3O)[C@H](N)C[C@@H]2N)[C@H](N)C[C@@H]1O [tobramycin] | 0.25 to 1 µg/mL | (0.25-1) μg/mL | (0.12-1) μg/mL
